# Values of other authors as cited in patent US20100136097A1, “Systems for modulating inflammation” (Searete LLC, a limited liability corporation of the State …, priority 2008, published 2010).
# What was measured:
# [1] = test system: Src family kinases (Src, Lck, Yes, Fyn); details: at nanomolar concentrations
# [2] = mice
# [3] = test system: proteasomal activity in cultured breast cancer cells; details: through binding of copper
# [4] = single agent, infused at 400 mg over one hour
# [5] = test system: Src family kinase
smiles,measurement,setting,value
"Cc1nc(Nc2ncc(C(=O)Nc3c(C)cccc3Cl)s2)cc(N2CCN(CCO)CC2)n1.O [dasatinib, N-(2-chloro-6-methylphenyl)-2-[[6-[4-(2-hydroxyethyl)-1-piperazinyl]-2-methyl-4-pyrimidinyl]amino]-5-thiazolecarboxamide, monohydrate]","inhibition of Src family kinases (Src, Lck, Yes, Fyn)",[1],inhibits
"Cl.Cl.Nc1ccccc1Oc1ccc2c(N)nsc2c1 [Example M62812, 3-amino-6-(2-aminophenoxy)-1,2-benzisothiazole dihydrochloride]",prevention of lethal septic shock,[2],prevents lethal septic shock
"CCN(CC)C(=S)SSC(=S)N(CC)CC [Disulfiram, 1-(diethylthiocarbamoyldisulfanyl)-N,N-diethyl-methanethioamide]",proteasomal activity,[3],inhibits proteasomal activity
"CCN(CC)CCCC(C)Nc1ccnc2cc(Cl)ccc12.O=P(O)(O)O.O=P(O)(O)O (centres unmarked) [Chloroquine phosphate, 7-chloro-4-[[4-(diethylamino)-1-methylbutyl]amino]quinoline phosphate (1:2)]",tolerability of infusion,[4],without complication
CCN(CC)CCCC(C)Nc1ccnc2cc(Cl)ccc12 (centres unmarked) [Chloroquine],"inhibition of CpG-induced Src family kinase activation, or its dependent cellular responses",[5],does not inhibit
